One data set concerns the target T1, human NTCP (Homo sapiens, UniProt Q14973).
T1 construct: made in house; host or cells: wheat germ cell-free protein synthesis system
T1 sequence (Q14973 1-349): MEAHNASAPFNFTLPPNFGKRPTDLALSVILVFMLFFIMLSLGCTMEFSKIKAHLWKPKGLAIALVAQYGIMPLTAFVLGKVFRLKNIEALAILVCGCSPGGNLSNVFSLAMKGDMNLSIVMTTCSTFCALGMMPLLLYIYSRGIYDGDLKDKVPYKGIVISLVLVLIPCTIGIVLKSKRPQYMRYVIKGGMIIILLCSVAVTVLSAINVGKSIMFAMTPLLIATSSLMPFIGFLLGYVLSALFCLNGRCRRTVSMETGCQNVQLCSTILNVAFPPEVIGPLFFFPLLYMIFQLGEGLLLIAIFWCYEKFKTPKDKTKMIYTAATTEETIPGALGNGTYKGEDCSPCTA
Description: Surface plasmon resonance binding to immobilized recombinant NTCP. The following applies: single-cycle kinetics, 1:1 binding model, NTCP immobilized on NTA-Ni2+. On the procedure:
FIG. 7 is a diagram showing the NTCP association constant of a peptide identified by first RaPID screening. A single-cycle reaction kinetics experiment was conducted using NTCP immobilized on surface (NTA-Ni^2+) involving varying concentrations of a cyclic peptide analyte. In each case, as shown in the drawing, the peptide was tested with 4-fold serial dilutions starting from the highest concentration of 200 or 1000 nM. A dissociation constant (KD) was determined using a 1:1 binding model.
FIG. 9 is a diagram showing the NTCP association constant of a peptide identified by focused library RaPID screening. A single-cycle association constant experiment was conducted using NTCP immobilized on surface (NTA-Ni^2+) involving varying concentrations of a cyclic peptide analyte. In each case, as shown in the drawing, the peptide was tested with 4-fold serial dilutions starting from the highest concentration of 200 or 1000 nM. A dissociation constant (KD) was determined using a 1:1 binding model.
The association constant of each peptide for human NTCP was measured using a Biacore T200 apparatus (GE Healthcare Japan Corp.). The running buffer solution used was HBS-P+ (10 mM HEPES, 150 mM NaCl, and 0.05 vol % surfactant P20, pH 7.4) containing 0.1 vol % DMSO and 1 mM β-dodecyl-maltoside. 100 nM recombinant NTCP was immobilized on a NTA chip treated with Ni^2+ according to the manufacturer's instructions (baseline response: 1000 to 3000 refraction units). Peptides were injected as analytes at a flow rate of 60 μL/min, and association constants were modelled using a 1:1 binding model.

In the next data set the test system is HepG2-hNTCP-C4 cells. The following applies: HBV infection assay.
The test system of data set [1] is HBV genotype D. The format is cell-based, hepatitis B virus. The following applies: primary human hepatocytes; for IC50: purified HBV as inoculum, HBs antigen in culture supernatant, read-out: 50% inhibitory concentrations (IC50), HBs antigen; for HBs antigen in the culture supernatant: peptide at 100 μM, 12 days after inoculation. On the procedure:
FIG. 2 is a diagram showing the anti-HBV effect of a peptide from initial screening. FIG. 2(a) is a schematic diagram of a HepG2-hNTCP-C4 infection experiment. HepG2-hNTCP-C4 cells were pretreated with a peptide for 2 hours and subsequently inoculated with HBV for 16 hours in the presence of the peptide. Free HBV and peptide were washed off. Then, the cells were further cultured for 12 days in the absence of the peptide, and HBV infection was evaluated on the basis of measurement of HBs antigen in the culture supernatant. The filled boxes and the broken-line boxes depict periods for which the treatment was performed and periods for which the treatment was not performed, respectively. […] HBV infection was evaluated by monitoring HBs antigen secreted into a culture supernatant on 12 days after inoculation by ELISA. In FIG. 2(c), a cell survival rate was measured by MTT assay.
FIG. 3 is a diagram showing the anti-HBV effect of a peptide by focused library screening. […] HBV infection was evaluated by measurement of HBe antigen (a), and a cell survival rate (b) was evaluated by MTT assay as shown in FIG. 2.
HBV genotype D used in this study (FIGS. 1 to 3) was derived from the culture supernatant of Hep38.7-Tet cells, and prepared by a known method (the method described in Tsukuda, S. et al. Dysregulation of retinoic acid receptor diminishes hepatocyte permissiveness to hepatitis B virus infection through modulation of sodium taurocholate cotransporting polypeptide (NTCP) expression. The Journal of biological chemistry 290, 5673-5684 (2015), and Ogura, N., Watashi, K., Noguchi, T. & Wakita, T. Formation of covalently closed circular DNA in Hep38.7-Tet cells, a tetracycline inducible hepatitis B virus expression cell line. Biochemical and biophysical research communications 452, 315-321 (2014)). Purified HBV (FIG. 1(d)) was prepared by ultrafiltration to remove an excess of components in FBS and medium. HBV genotypes A, B, and C and genotype C having the L180M/S202G/M204V mutations (nucleoside analog-resistant HBV) or G145R substitution (vaccine-escape HBV) (FIG. 4(d)) were prepared from the culture supernatant of HepG2 cells transfected with the corresponding expression plasmid. HBV was inoculated at 12,000 (FIGS. 1(a), 1(b), and 1(d)), 1000 to 2000 (FIG. 2(b)) or 500 (FIGS. 3(a) and 4(d)) genome equivalents (GEq)/cell in the presence of 4% polyethylene glycol 8000 (PEG8000) and incubated at 37° C. for 16 hours by a known method (the method described in Watashi, K. et al. Interleukin-1 and tumor necrosis factor-alpha trigger restriction of hepatitis B virus infection via a cytidine deaminase activation-induced cytidine deaminase (AID). The Journal of biological chemistry 288, 31715-31727 (2013)).
HBe antigen was detected by a chemiluminescence immunoassay (CLIA) (LSI Medience Corp.). HBs antigen was quantified by enzyme-linked immunosorbent assay (ELISA) as described in a known method (the method described in Watashi, K. et al. Interleukin-1 and tumor necrosis factor-alpha trigger restriction of hepatitis B virus infection via a cytidine deaminase activation-induced cytidine deaminase (AID). The Journal of biological chemistry 288, 31715-31727 (2013)).
Subsequently, the present inventors evaluated the effect of the 10 peptides described above on HBV infection in primary human hepatocytes. […] HBV infection was evaluated by measuring HBs antigen in the culture supernatant. […]

Data set [2] has as its target human NTCP on cells (HepG2-hNTCP-C4 cells overexpressing the human NTCP gene; primary human hepatocytes) (human) (UniProt Q14973). Description: cell-based or functional assay.
The test system of data set [3] is HBV genotype D. Description: HBV infection assay in HepG2-hNTCP-C4 cells (HBs and HBc antigens). The class given is cell-based, hepatitis B virus. The following applies: 100 nM entecavir.
The target in data set [4] is T2, His-tagged recombinant NTCP protein (human sodium taurocholate cotransporting polypeptide) (human), Q14973.
T2 chain: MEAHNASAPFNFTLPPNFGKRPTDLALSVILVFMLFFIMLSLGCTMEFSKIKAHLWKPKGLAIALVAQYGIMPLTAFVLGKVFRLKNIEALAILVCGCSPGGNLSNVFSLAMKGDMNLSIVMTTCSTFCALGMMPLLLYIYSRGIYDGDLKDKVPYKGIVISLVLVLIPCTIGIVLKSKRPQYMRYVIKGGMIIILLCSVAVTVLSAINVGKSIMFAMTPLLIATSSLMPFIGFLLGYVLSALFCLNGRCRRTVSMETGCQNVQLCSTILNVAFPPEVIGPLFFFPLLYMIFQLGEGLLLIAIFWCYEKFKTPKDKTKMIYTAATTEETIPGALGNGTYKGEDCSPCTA
Description: SPR (Biacore T200), single-cycle kinetics, His-NTCP on Ni2+-NTA chip, peptide as analyte, 1:1 model.

Data set [5] concerns the target T3, human NTCP on cells (HepG2-hNTCP-C4 cells overexpressing the human NTCP gene; primary human hepatocytes) (human), Q14973.
T3 chain: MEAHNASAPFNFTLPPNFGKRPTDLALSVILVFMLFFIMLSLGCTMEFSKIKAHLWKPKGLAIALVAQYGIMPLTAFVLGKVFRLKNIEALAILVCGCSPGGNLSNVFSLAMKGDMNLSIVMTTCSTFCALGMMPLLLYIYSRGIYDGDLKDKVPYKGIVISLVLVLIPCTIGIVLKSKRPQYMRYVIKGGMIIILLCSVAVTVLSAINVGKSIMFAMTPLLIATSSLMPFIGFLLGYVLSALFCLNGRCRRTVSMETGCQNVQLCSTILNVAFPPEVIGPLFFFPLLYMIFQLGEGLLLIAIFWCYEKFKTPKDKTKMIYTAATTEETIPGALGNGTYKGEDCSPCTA
Description: cell-based or functional assay.

Values after ≈ are worked out from the molar mass of the structure shown. Like-named read-outs stand apart in the source and are kept apart here. Where a SMILES comes first, the peptide text is derived from it. Bridges are numbered along the chain shown (N, C = ends). [ ]: non-standard residue; d: D form. Sar = CNCC(=O)O

`CC[C@H](C)[C@@H]1NC(=O)[C@H](Cc2ccc(O)cc2)NC(=O)CSC[C@@H](C(=O)N[C@H](C(N)=O)[C@@H](C)O)NC(=O)[C@H](Cc2ccc(O)cc2)NC(=O)[C@H]([C@@H](C)CC)NC(=O)[C@H](C(C)C)NC(=O)[C@H](Cc2ccc(O)cc2)NC(=O)CNC(=O)[C@@H]2CCCN2C(=O)[C@H](Cc2c[nH]c3ccccc23)NC(=O)[C@H]([C@@H](C)CC)NC(=O)[C@H](Cc2c[nH]c3ccccc23)NC1=O` [WL2] ({CH2CO}-YIWIWPGYVIYCT-NH2; thioether N-12) returned a solubility of about 30 µM (≈ 51.5 µg/mL). At human NTCP (read-out: Kd), the Kd amounted to 0.157 µM. In addition, the “cytotoxicity (cell survival rate, total cellular DNA)” value in the data set on HepG2-hNTCP-C4 cells is “without marked cytotoxicity”. Also, the IC50 in the data set with HBV genotype D [1] is 2.54 ± 0.11 µM.
For `CC[C@H](C)[C@@H]1NC(=O)[C@H](Cc2ccccc2)NC(=O)[C@@H](Cc2ccc(O)cc2)NC(=O)CSC[C@@H](C(=O)N[C@H](C(N)=O)[C@@H](C)O)NC(=O)[C@H](CO)NC(=O)[C@H](Cc2c[nH]c3ccccc23)NC(=O)[C@H]([C@@H](C)O)NC(=O)[C@H](Cc2c[nH]c3ccccc23)NC(=O)[C@H]([C@@H](C)O)NC(=O)[C@H](Cc2c[nH]c3ccccc23)NC(=O)[C@H]([C@@H](C)O)NC(=O)CN(C)C(=O)[C@H](C(C)C)NC(=O)[C@H]([C@@H](C)CC)NC1=O` [WD1] ({CH2CO}-[dY]FIIV[Sar]TWTWTWSCT-NH2; thioether N-14) the same measures were about 30 µM (≈ 57.5 µg/mL), 0.015 µM, “without marked cytotoxicity” and 0.85 ± 0.01 µM.
For cyclosporin A (peptide), the 50% inhibitory concentration (IC50), HBs antigen in culture supernatant, HBV infection assay in data set [2] was found to be 3.17 µM.
With `C=C1[C@H](CO)[C@@H](O)C[C@@H]1n1cnc2c(=O)[nH]c(N)nc21` [entecavir], in the data set on HBV genotype D [3], the “HBV infection monitored by HBc antigen” value is recorded as “did not exhibit a significant reduction” and the “HBV infection monitored by HBs antigen” value is reported as “did not exhibit a significant reduction”.
As to `CC[C@H](C)[C@@H]1NC(=O)[C@H](C)NC(=O)[C@H](Cc2c[nH]c3ccccc23)NC(=O)[C@H](Cc2c[nH]c3ccccc23)NC(=O)[C@@H](Cc2ccc(O)cc2)NC(=O)CSC[C@@H](C(=O)NCC(N)=O)NC(=O)[C@@H]2CCCN2C(=O)[C@H](Cc2c[nH]c3ccccc23)NC(=O)[C@H]([C@@H](C)O)NC(=O)[C@H](Cc2ccccc2)NC(=O)[C@H](C(C)C)NC(=O)[C@H](Cc2c[nH]cn2)NC(=O)[C@H]([C@@H](C)CC)NC(=O)[C@H](Cc2c[nH]cn2)NC(=O)[C@@H]2CCCN2C(=O)[C@H](CC(N)=O)NC1=O` [D2] ({CH2CO}-[dY]WWAINPHIHVFTWPCG-NH2; thioether N-16), the Kd at human NTCP (Kd) is 0.014 µM. The “HBs antigen in the culture supernatant” value with HBV genotype D [1] is recorded as “most active”.
As for `CC[C@H](C)[C@@H]1NC(=O)[C@H](Cc2c[nH]c3ccccc23)NC(=O)[C@H]([C@@H](C)CC)NC(=O)[C@H](C(C)C)NC(=O)[C@H](Cc2ccc(O)cc2)NC(=O)CSC[C@@H](C(=O)N[C@H](C(N)=O)[C@@H](C)O)NC(=O)[C@H](Cc2ccc(O)cc2)NC(=O)[C@H](Cc2ccc(O)cc2)NC(=O)[C@H](Cc2ccccc2)NC(=O)[C@H](Cc2c[nH]cn2)NC(=O)[C@H](CC(N)=O)NC(=O)[C@@H]2CCCN2C(=O)[C@H](Cc2c[nH]c3ccccc23)NC1=O` [WL4] ({CH2CO}-YVIWIWPNHFYYCT-NH2; thioether N-13), the solubility is about 30 µM (≈ 58.3 µg/mL). Besides, the Kd on human NTCP (read-out: Kd) was found to be 0.042 µM. Moreover, the “cytotoxicity (cell survival rate, total cellular DNA)” value in the data set on HepG2-hNTCP-C4 cells is on record as “without marked cytotoxicity”. For the same molecule, the IC50 in the data set on HBV genotype D [1] was 0.66 ± 0.03 µM.
As for `CC[C@H](C)[C@@H]1NC(=O)[C@@H](Cc2ccc(O)cc2)NC(=O)CSC[C@@H](C(=O)NCC(N)=O)NC(=O)[C@H](CO)NC(=O)[C@H](Cc2ccc(O)cc2)NC(=O)[C@H](CC(C)C)NC(=O)[C@H](CC(C)C)NC(=O)[C@H](Cc2ccccc2)NC(=O)[C@H](CC(C)C)NC(=O)[C@H](Cc2c[nH]cn2)NC(=O)[C@H](CC(C)C)NC(=O)[C@H](CCC(=O)O)NC(=O)[C@@H]2CCCN2C(=O)[C@H](Cc2ccc(O)cc2)NC(=O)[C@H](C(C)C)NC(=O)[C@H](CC(C)C)NC1=O` [D4] ({CH2CO}-[dY]ILVYPELHLFLLYSCG-NH2; thioether N-16), on human NTCP (Kd), the Kd was found to be 2.27 µM. Besides, the “HBs antigen in the culture supernatant” value in the data set with HBV genotype D [1] was “most active”.
For YFIIVGTWTWTWSCT (modifications not checked) [WD1], in data set [4], the Kd was found to be 0.015 µM. Besides, the 50% inhibitory concentration (IC50), HBs antigen in culture supernatant, HBV infection assay in data set [5] stood at 0.85 µM.
For the molecule YIWIWPGYVIYCT (modifications not checked) [WL2], the Kd in data set [4] is 0.157 µM. This molecule displayed a 50% inhibitory concentration (IC50), HBs antigen in culture supernatant, HBV infection assay in data set [5] of 2.54 µM.
The corresponding values for YVIWIWPNHFYYCT (modifications not checked) [WL4] are 0.042 µM and 0.66 µM.

(Values after US20210061859A1, “NTCP Inhibitor” (The University of Tokyo, priority 2018, published 2021).)
